Assay results reported in EP0009655A1, “6-Amino substituted N-pyrrolyl-3-pyridazine amines, their preparation, and pharmaceutically antihypertensive compositions containing them” (priority 1978, dated 1980).

Key:
[1] = tested on: spontaneous hypertensive rats (MHR: Milano hypertensive rats); test: Antihypertensive activity in spontaneous hypertensive rats (systolic blood pressure); assay type: in vivo; settings: dose of 5 mg/kg
[2] = tested on: renal hypertensive dogs; test: Antihypertensive activity in conscious renal hypertensive dogs (systolic arterial blood pressure, indirect method on the tail); assay type: in vivo; settings: for maximum systolic blood pressure drop / time of maximum systolic blood pressure drop / blood pressure drop after seven hours: dose of 2 mg/kg; for blood pressure drop after seven hours: seven hours after administration
Description: The antihypertensive activity of the compounds of the invention was shown in representative tests on spontaneous hypertensive rats and in renal hypertensive dogs. In representative experiments with renal hypertensive dogs, effective amounts(1 to 4 mg/kg) of compounds of examples 3, 4, 5, 6, 8, 13, 14 and 15 were administered p.o. to the conscious hypertensive animals. The systolic arterial blood pressure was measured by the indirect method on the tail before and 1, 3, 5 and 7 hours after treatment.
The drop of the systolic blood pressure ranged between 20 and 70 mm Hg, depending on the specific compound tested and on the time at which the blood pressure was observed. In general the antihypertensive effect started about 3 hours after treatment and the maximum effect was still persistent 7 hours after treatment.

[3] = Acute toxicity, LD50 p.o.; settings: mouse, in vivo, po

| SMILES | blood pressure drop [1] [mm Hg] | drop of the systolic blood pressure ([2]; 1 mg/kg p.o.) [mm Hg] | drop of the systolic blood pressure ([2]; 4 mg/kg p.o.) [mm Hg] | maximum systolic blood pressure drop [2] [mm Hg] | time of maximum systolic blood pressure drop [2] | blood pressure drop after seven hours [2] [mm Hg] | LD50 [3] [mg/kg] |
| --- | --- | --- | --- | --- | --- | --- | --- |
| Cc1ccc(C)n1Nc1ccc(N2CCOCC2)nn1 [Example 3, N-(2,5-Dimethyl-1H-pyrrol-1-yl)-6-morpholino-3-pyridazineamine] | 38 | 50 | 70 | 52 | about three | 48 | ~800 |
| NNc1nncc2ccccc12 [hydralazine, 1-hydrazinophthalazine, reference compound] |  |  |  | 41 | about one | 29 |  |
